From publication PMC7385619, “A triple action CDK4/6-PI3K-BET inhibitor with augmented cancer cell cytotoxicity” (Cell Discovery, 2020)
pIC50: −log10 of the molar value.

Legend:
BRD3 (BD1) = target: T1, BRD3 (BD1) (Homo sapiens, UniProt Q15059); test: AlphaScreen bromodomain binding assay, BRD3 BD1; conditions: Fig. 1b; italicized values from the literature (italics not visible)
T1 construct: tagged bromodomains and acetylated histone peptides as; purchased Reaction Biology

kinome (kinase panel) [1] = target: T2, kinome (kinase panel) (Homo sapiens, UniProt P49137); test: KINOMEscan assay (Eurofins DiscoverX); assay type: binding; conditions: MAPKAPK2; 1000 nM; read-out: Percent Control
T2 construct: purchased Eurofins DiscoverX

kinome (kinase panel) [2] = target: T3, kinome (kinase panel) (Homo sapiens, UniProt P52333); test: KINOMEscan assay (Eurofins DiscoverX); assay type: binding; conditions: JAK3(JH1domain-catalytic); 1000 nM; read-out: Percent Control
T3 construct: purchased Eurofins DiscoverX

kinome (kinase panel) [3] = target: T4, kinome (kinase panel) (Homo sapiens, UniProt Q9Y4K4); test: KINOMEscan assay (Eurofins DiscoverX); assay type: binding; conditions: MAP4K5; 1000 nM; read-out: Percent Control
T4 construct: purchased Eurofins DiscoverX

kinome (kinase panel) [4] = target: T5, kinome (kinase panel) (Homo sapiens, UniProt P21860); test: KINOMEscan assay (Eurofins DiscoverX); assay type: binding; conditions: ERBB3; 1000 nM; read-out: Percent Control
T5 construct: purchased Eurofins DiscoverX

kinome (kinase panel) [5] = target: T6, kinome (kinase panel) (Homo sapiens, UniProt Q13177); test: KINOMEscan assay (Eurofins DiscoverX); assay type: binding; conditions: PAK2; 1000 nM; read-out: Percent Control
T6 construct: purchased Eurofins DiscoverX

kinome (kinase panel) [6] = target: T7, kinome (kinase panel) (Homo sapiens, UniProt Q13705); test: KINOMEscan assay (Eurofins DiscoverX); assay type: binding; conditions: ACVR2B; 1000 nM; read-out: Percent Control
T7 construct: purchased Eurofins DiscoverX
T7 sequence (Q13705 19-512): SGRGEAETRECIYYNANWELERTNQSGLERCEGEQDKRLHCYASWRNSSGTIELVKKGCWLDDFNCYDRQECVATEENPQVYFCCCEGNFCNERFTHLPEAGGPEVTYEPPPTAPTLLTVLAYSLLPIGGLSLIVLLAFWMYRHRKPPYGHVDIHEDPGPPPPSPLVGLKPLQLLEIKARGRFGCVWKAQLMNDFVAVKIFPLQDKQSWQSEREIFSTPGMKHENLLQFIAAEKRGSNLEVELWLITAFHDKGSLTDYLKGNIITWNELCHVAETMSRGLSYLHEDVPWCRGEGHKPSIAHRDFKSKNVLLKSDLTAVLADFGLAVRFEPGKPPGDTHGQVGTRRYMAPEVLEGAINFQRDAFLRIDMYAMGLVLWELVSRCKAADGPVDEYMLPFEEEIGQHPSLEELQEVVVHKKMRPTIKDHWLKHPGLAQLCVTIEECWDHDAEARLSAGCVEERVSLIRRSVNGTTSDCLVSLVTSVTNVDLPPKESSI

kinome (kinase panel) [7] = target: T8, kinome (kinase panel) (Homo sapiens, UniProt P43403); test: KINOMEscan assay (Eurofins DiscoverX); assay type: binding; conditions: ZAP70; 1000 nM; read-out: Percent Control
T8 construct: purchased Eurofins DiscoverX
T8 sequence (P43403 whole entry): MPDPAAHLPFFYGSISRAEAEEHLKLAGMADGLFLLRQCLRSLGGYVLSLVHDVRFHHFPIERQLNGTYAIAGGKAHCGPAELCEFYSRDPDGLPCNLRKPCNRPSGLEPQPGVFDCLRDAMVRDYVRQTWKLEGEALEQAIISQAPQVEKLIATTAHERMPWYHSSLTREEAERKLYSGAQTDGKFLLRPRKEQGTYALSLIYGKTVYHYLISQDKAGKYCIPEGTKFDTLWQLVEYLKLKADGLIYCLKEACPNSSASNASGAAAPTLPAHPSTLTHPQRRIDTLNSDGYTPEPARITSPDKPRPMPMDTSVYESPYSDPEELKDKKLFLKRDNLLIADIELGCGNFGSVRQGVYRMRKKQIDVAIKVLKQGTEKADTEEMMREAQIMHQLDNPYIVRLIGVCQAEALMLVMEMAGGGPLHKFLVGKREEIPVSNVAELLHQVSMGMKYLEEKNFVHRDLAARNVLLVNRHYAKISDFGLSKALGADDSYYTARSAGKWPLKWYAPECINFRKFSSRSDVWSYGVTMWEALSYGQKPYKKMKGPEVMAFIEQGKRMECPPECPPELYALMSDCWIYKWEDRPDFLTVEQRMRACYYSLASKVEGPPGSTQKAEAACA

kinome (kinase panel) [8] = target: T9, kinome (kinase panel) (Homo sapiens, UniProt Q04759); test: KINOMEscan assay (Eurofins DiscoverX); assay type: binding; conditions: PRKCQ; 1000 nM; read-out: Percent Control
T9 construct: purchased Eurofins DiscoverX

kinome (kinase panel) [9] = target: T10, kinome (kinase panel) (Homo sapiens, UniProt Q00535); test: KINOMEscan assay (Eurofins DiscoverX); assay type: binding; conditions: CDK5; 1000 nM; read-out: Percent Control
T10 construct: purchased Eurofins DiscoverX

kinome (kinase panel) [10] = target: T11, kinome (kinase panel) (Homo sapiens, UniProt O15530); test: KINOMEscan assay (Eurofins DiscoverX); assay type: binding; conditions: PDPK1; 1000 nM; read-out: Percent Control
T11 construct: purchased Eurofins DiscoverX

kinome (kinase panel) [11] = target: T12, kinome (kinase panel) (Homo sapiens, UniProt Q13237); test: KINOMEscan assay (Eurofins DiscoverX); assay type: binding; conditions: PRKG2; 1000 nM; read-out: Percent Control
T12 construct: purchased Eurofins DiscoverX

kinome (kinase panel) [12] = target: T13, kinome (kinase panel) (Homo sapiens, UniProt Q6P2M8); test: KINOMEscan assay (Eurofins DiscoverX); assay type: binding; conditions: CAMK1B (Entrez PNCK); 1000 nM; read-out: Percent Control
T13 construct: purchased Eurofins DiscoverX
T13 sequence (Q6P2M8 whole entry): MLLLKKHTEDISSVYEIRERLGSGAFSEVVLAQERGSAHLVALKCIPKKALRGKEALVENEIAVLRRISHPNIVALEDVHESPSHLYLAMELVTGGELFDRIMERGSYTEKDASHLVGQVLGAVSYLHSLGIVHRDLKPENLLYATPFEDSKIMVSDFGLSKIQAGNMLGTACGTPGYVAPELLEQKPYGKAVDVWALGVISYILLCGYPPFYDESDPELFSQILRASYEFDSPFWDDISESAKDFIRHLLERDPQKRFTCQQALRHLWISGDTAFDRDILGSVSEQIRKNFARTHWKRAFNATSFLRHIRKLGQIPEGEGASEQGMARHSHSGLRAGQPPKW

kinome (kinase panel) [13] = target: T14, kinome (kinase panel) (Homo sapiens, UniProt P00519, H396P); test: KINOMEscan assay (Eurofins DiscoverX); assay type: binding
T14 construct: purchased Eurofins DiscoverX

kinome (kinase panel) [14] = target: T15, kinome (kinase panel) (Homo sapiens, UniProt P51957); test: KINOMEscan assay (Eurofins DiscoverX); assay type: binding; conditions: NEK4; 1000 nM; read-out: Percent Control
T15 construct: purchased Eurofins DiscoverX
T15 sequence (P51957 whole entry): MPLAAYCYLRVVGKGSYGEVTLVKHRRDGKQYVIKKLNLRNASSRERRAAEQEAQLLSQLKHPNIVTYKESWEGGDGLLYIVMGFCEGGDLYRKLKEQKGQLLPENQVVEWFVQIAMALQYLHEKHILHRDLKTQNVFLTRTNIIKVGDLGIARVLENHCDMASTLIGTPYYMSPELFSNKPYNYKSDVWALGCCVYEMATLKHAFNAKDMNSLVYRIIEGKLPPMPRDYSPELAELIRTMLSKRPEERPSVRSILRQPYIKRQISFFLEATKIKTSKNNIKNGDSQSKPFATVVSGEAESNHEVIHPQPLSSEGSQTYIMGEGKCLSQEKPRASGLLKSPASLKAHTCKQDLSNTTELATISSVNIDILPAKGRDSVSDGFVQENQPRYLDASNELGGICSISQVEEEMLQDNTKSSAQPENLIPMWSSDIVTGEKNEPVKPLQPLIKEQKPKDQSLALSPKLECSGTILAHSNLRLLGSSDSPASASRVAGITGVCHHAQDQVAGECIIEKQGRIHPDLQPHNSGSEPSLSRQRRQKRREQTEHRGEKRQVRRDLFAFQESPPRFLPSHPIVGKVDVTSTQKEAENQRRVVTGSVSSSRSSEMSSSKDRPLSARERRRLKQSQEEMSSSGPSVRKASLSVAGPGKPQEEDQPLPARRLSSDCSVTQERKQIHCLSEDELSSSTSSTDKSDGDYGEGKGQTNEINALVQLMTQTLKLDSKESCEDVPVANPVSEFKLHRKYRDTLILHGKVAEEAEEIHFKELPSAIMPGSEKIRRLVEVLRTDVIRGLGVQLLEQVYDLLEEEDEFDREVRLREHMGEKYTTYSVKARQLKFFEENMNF

kinome (kinase panel) [15] = target: T16, kinome (kinase panel) (Homo sapiens, UniProt P36894); test: KINOMEscan assay (Eurofins DiscoverX); assay type: binding; conditions: BMPR1A; 1000 nM; read-out: Percent Control
T16 construct: purchased Eurofins DiscoverX

kinome (kinase panel) [16] = target: T17, kinome (kinase panel) (Homo sapiens, UniProt P00533); test: KINOMEscan assay (Eurofins DiscoverX); assay type: binding; conditions: EGFR; 1000 nM; read-out: Percent Control
T17 construct: purchased Eurofins DiscoverX

kinome (kinase panel) [17] = target: T18, kinome (kinase panel) (Homo sapiens, UniProt P51813); test: KINOMEscan assay (Eurofins DiscoverX); assay type: binding; conditions: BMX; 1000 nM; read-out: Percent Control
T18 construct: purchased Eurofins DiscoverX

kinome (kinase panel) [18] = target: T19, kinome (kinase panel) (Homo sapiens, UniProt P00519, E255K); test: KINOMEscan assay (Eurofins DiscoverX); assay type: binding; conditions: read-out: Percent Control
T19 construct: purchased Eurofins DiscoverX

kinome (kinase panel) [19] = target: T20, kinome (kinase panel) (Homo sapiens, UniProt Q59H18); test: KINOMEscan assay (Eurofins DiscoverX); assay type: binding; conditions: TNNI3K; 1000 nM; read-out: Percent Control
T20 construct: purchased Eurofins DiscoverX
T20 sequence (Q59H18 whole entry): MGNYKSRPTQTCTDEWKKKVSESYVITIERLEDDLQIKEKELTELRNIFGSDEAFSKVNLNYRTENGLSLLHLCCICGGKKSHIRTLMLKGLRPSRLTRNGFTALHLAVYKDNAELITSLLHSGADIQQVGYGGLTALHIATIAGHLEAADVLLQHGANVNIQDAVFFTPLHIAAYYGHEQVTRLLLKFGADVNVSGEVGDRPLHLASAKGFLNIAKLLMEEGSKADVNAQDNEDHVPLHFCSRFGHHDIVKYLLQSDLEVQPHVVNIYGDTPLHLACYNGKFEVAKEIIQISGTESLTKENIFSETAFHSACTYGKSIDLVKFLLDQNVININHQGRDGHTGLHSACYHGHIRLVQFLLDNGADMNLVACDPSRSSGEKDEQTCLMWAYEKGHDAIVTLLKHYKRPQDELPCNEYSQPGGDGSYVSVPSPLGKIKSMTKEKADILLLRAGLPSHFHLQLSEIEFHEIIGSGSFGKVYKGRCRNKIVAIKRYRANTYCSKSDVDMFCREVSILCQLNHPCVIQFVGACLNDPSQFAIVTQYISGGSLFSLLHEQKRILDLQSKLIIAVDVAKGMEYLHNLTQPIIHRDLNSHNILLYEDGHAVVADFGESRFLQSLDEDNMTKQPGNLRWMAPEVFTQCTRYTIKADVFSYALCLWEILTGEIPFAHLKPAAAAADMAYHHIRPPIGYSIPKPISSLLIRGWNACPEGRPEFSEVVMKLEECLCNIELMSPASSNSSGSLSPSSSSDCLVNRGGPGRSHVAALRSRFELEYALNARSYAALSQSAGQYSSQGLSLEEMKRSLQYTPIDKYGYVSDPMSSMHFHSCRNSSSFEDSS

kinome (kinase panel) [20] = target: T21, kinome (kinase panel) (Homo sapiens, UniProt Q7L7X3); test: KINOMEscan assay (Eurofins DiscoverX); assay type: binding; conditions: TAOK1; 1000 nM; read-out: Percent Control
T21 construct: purchased Eurofins DiscoverX

kinome (kinase panel) [21] = target: T22, kinome (kinase panel) (Homo sapiens, UniProt P21127); test: KINOMEscan assay (Eurofins DiscoverX); assay type: binding; conditions: CDC2L1 (Entrez CDK11B); 1000 nM; read-out: Percent Control
T22 construct: purchased Eurofins DiscoverX

kinome (kinase panel) [22] = target: T23, kinome (kinase panel) (Homo sapiens, UniProt P53355); test: KINOMEscan assay (Eurofins DiscoverX); assay type: binding; conditions: DAPK1; 1000 nM; read-out: Percent Control
T23 construct: purchased Eurofins DiscoverX

kinome (kinase panel) [23] = target: T24, kinome (kinase panel) (Homo sapiens, UniProt P24941); test: KINOMEscan assay (Eurofins DiscoverX); assay type: binding; conditions: CDK2; 1000 nM; read-out: Percent Control
T24 construct: purchased Eurofins DiscoverX

kinome (kinase panel) [24] = target: T25, kinome (kinase panel) (Homo sapiens, UniProt Q9UQM7); test: KINOMEscan assay (Eurofins DiscoverX); assay type: binding; conditions: CAMK2A; 1000 nM; read-out: Percent Control
T25 construct: purchased Eurofins DiscoverX

kinome (kinase panel) [25] = target: T26, kinome (kinase panel) (Homo sapiens, UniProt Q9BYT3); test: KINOMEscan assay (Eurofins DiscoverX); assay type: binding; conditions: STK33; 1000 nM; read-out: Percent Control
T26 construct: purchased Eurofins DiscoverX

kinome (kinase panel) [26] = target: T27, kinome (kinase panel) (Homo sapiens, UniProt Q6ZN16); test: KINOMEscan assay (Eurofins DiscoverX); assay type: binding; conditions: MAP3K15; 1000 nM; read-out: Percent Control
T27 construct: purchased Eurofins DiscoverX

kinome (kinase panel) [27] = target: T28, kinome (kinase panel) (Homo sapiens, UniProt Q8IU85); test: KINOMEscan assay (Eurofins DiscoverX); assay type: binding; conditions: CAMK1D; 1000 nM; read-out: Percent Control
T28 construct: purchased Eurofins DiscoverX
T28 sequence (Q8IU85 whole entry): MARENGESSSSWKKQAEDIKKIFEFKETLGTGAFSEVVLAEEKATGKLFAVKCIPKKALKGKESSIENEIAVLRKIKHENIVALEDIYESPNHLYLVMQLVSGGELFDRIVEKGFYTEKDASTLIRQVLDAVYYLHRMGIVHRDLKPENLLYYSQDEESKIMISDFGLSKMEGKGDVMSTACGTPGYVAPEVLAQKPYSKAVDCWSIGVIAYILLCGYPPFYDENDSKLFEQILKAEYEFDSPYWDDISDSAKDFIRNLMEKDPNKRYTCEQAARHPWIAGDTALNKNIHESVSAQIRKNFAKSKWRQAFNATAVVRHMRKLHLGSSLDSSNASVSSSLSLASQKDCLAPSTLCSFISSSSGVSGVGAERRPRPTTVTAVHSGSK

kinome (kinase panel) [28] = target: T29, kinome (kinase panel) (Homo sapiens, UniProt Q9UQB9); test: KINOMEscan assay (Eurofins DiscoverX); assay type: binding; conditions: AURKC; 1000 nM; read-out: Percent Control
T29 construct: purchased Eurofins DiscoverX
T29 sequence (Q9UQB9 whole entry): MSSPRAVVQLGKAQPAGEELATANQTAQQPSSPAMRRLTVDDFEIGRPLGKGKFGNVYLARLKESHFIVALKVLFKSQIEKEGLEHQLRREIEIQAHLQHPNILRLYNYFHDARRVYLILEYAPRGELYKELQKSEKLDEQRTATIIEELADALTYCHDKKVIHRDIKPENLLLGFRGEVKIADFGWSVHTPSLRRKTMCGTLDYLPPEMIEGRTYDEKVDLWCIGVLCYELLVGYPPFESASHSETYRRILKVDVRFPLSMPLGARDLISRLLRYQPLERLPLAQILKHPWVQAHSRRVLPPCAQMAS

kinome (kinase panel) [29] = target: T30, kinome (kinase panel) (Homo sapiens, UniProt Q56UN5); test: KINOMEscan assay (Eurofins DiscoverX); assay type: binding; conditions: YSK4 (MAP3K19); 1000 nM; read-out: Percent Control
T30 construct: purchased Eurofins DiscoverX

kinome (kinase panel) [30] = target: T31, kinome (kinase panel) (Homo sapiens, UniProt P30530); test: KINOMEscan assay (Eurofins DiscoverX); assay type: binding; conditions: AXL; 1000 nM; read-out: Percent Control
T31 construct: purchased Eurofins DiscoverX
T31 sequence (P30530 26-894): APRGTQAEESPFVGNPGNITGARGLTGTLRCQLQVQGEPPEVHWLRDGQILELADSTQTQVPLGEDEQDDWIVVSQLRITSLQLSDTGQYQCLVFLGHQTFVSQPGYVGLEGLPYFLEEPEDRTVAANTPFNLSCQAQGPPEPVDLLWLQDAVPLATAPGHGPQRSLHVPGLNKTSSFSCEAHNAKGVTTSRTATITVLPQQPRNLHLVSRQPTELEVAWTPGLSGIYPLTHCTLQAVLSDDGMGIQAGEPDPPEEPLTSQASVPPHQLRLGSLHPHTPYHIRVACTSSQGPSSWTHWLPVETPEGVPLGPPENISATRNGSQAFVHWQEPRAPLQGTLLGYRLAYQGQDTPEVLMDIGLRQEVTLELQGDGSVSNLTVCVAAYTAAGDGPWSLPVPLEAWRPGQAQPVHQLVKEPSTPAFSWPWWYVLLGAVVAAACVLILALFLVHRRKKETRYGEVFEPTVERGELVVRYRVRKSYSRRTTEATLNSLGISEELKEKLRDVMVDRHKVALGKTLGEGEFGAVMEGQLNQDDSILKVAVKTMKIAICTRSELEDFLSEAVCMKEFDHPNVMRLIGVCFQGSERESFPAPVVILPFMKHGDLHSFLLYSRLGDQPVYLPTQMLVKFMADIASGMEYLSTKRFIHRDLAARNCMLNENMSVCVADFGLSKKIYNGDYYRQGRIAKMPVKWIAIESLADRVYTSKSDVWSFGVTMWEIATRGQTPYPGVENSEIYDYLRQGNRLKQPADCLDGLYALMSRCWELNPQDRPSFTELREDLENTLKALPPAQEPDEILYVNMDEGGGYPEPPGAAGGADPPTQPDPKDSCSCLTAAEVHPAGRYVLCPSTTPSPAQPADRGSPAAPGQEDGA

PI3Kδ = target: T32, PI3Kδ (Homo sapiens, UniProt O00329); test: In vitro kinase assay, PI3Kδ; assay type: biochemical; conditions: Fig. 1b; italicized values from the literature (italics not visible)
T32 construct: purchased ThermoFisher Scientific

[31] = test system: NCI-60 Panel of Human Tumor Cell Line; assay type: cell-based; conditions: 10 µM, one-dose assay

T1 sequence (Q15059 34-140 limits assumed): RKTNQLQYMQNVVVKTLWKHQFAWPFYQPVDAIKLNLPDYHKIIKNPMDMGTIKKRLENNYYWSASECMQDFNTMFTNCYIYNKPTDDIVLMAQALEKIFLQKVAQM

For CN(C)C(=O)c1cc2cnc(Nc3ccc(-c4csc5c(=O)cc(N6CCOCC6)oc45)cc3)nc2n1C1CCCC1 [SRX3177], the pIC50 (BRD3 (BD1)) was 6.97, the remaining binding at 1 µM (kinome (kinase panel) [1]) was 100% and the remaining binding at 1 µM (kinome (kinase panel) [2]) was 13%. It also gave a remaining binding at 1 µM (kinome (kinase panel) [3]) of 100%, a remaining binding at 1 µM (kinome (kinase panel) [4]) of 59% and a remaining binding at 1 µM (kinome (kinase panel) [5]) of 78%. It also gave a remaining binding at 1 µM (kinome (kinase panel) [6]) of 87%, a remaining binding at 1 µM (kinome (kinase panel) [7]) of 100% and a remaining binding at 1 µM (kinome (kinase panel) [8]) of 73%. It also gave a remaining binding at 1 µM (kinome (kinase panel) [9]) of 90%, a remaining binding at 1 µM (kinome (kinase panel) [10]) of 98% and a remaining binding at 1 µM (kinome (kinase panel) [11]) of 87%. For the same molecule, the remaining binding at 1 µM (kinome (kinase panel) [12]) was 41%, the “Percent Control” value (kinome (kinase panel) [13]) was 52 and the remaining binding at 1 µM (kinome (kinase panel) [13]; read-out: Percent Control) was 57%. For the same molecule, the remaining binding at 1 µM (kinome (kinase panel) [14]) was 89%, the remaining binding at 1 µM (kinome (kinase panel) [15]) was 100% and the remaining binding at 1 µM (kinome (kinase panel) [16]) was 100%. It also gave a remaining binding at 1 µM (kinome (kinase panel) [17]) of 77%, a remaining binding at 1 µM (kinome (kinase panel) [18]) of 59% and a remaining binding at 1 µM (kinome (kinase panel) [19]) of 94%. It also gave a remaining binding at 1 µM (kinome (kinase panel) [20]) of 14%, a remaining binding at 1 µM (kinome (kinase panel) [21]) of 99% and a remaining binding at 1 µM (kinome (kinase panel) [22]) of 100%. It also gave a remaining binding at 1 µM (kinome (kinase panel) [23]) of 72%, a remaining binding at 1 µM (kinome (kinase panel) [24]) of 76% and a remaining binding at 1 µM (kinome (kinase panel) [25]) of 98%. It also gave a remaining binding at 1 µM (kinome (kinase panel) [26]) of 100%, a remaining binding at 1 µM (kinome (kinase panel) [27]) of 95% and a remaining binding at 1 µM (kinome (kinase panel) [28]) of 21%. The remaining binding at 1 µM (kinome (kinase panel) [29]) was 65%, the remaining binding at 1 µM (kinome (kinase panel) [30]) was 89% and the pIC50 (PI3Kδ) was 7.08. The “cytotoxic effect in the NCI-60 panel” value [31] was “cytotoxic effects on the majority of the cell lines tested” and the “tumor cytotoxicity compared to SF2523 or SRX3177P” value ([31]; NCI-60 panel) was “greater tumor cytotoxicity”.
